Tests used:
[1] = system: Y93H in genotype 1a NS5A replicon; assay: Resistance mutant replicon assay, genotype 1a NS5A Y93H; assay type: cell-based, HCV; conditions: Hepatitis C virus, read-out: 1a Y93H (nM)
In short: (§1)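 Site-directed mutagenesis → mutant Pi-RLuc replicon RNA → transient transfection, cured-51 Huh-7 cells → 3-fold serial cpd dilutions from DMSO stock, 72 h → RLuc read → EC50, non-linear regression.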

[2] = system: stable HCV 2a JFH-1 Rluc replicon cells (L31 present in NS5A); assay: HCV genotype 2a JFH-1 RLuc replicon reporter assay; assay type: cell-based; conditions: Hepatitis C virus, 72 h, read-out: 2a JFH (nM)
[3] = system: Y93H in genotype 3a NS5A replicon; assay: Resistance mutant replicon assay, genotype 3a NS5A Y93H; assay type: cell-based, HCV; conditions: Hepatitis C virus, read-out: 3a Y93H (nM)
In short: as §1

[4] = system: L31V/Y93H in genotype 1b NS5A replicon; assay: Resistance mutant replicon assay, genotype 1b NS5A L31V/Y93H; assay type: cell-based, HCV; conditions: Hepatitis C virus, read-out: 1b L31V/Y93H (nM)
Description: (§2) Evaluation of cell-based anti-HCV activity: Antiviral potency (EC50) was determined using a Renilla luciferase (RLuc)-based HCV replicon reporter assay. To perform the assay for genotype 1 and 2a JFH-1, stable HCV 1a RLuc replicon cells (harboring a dicistronic genotype 1a H77 replicon that encodes a RLuc reporter), stable HCV lb RLuc replicon cells (harboring a dicistronic genotype 1b Conl replicon that encodes a RLuc reporter), or stable HCV 2a JFH-1 Rluc replicon cells (harboring a dicistronic genotype 2a JFH-1 replicon that encodes a RLuc reporter; with L31 present in NS5A) were dispensed into 384-well plates for EC50 assays. To perform the assay for genotype 2a (with M31 present in NS5A) or 2b, NS5A chimeric genotype 2a JFH-1 replicons that encodes a RLuc-Neo reporter and either genotype 2a J6 strain NS5A gene or genotype 2b MD2b-1 strain NS5A gene (both with M31 present) respectively, were either transiently transfected (t) into Huh-Lunet cells or were established as stably replicating replicon cells (s) is provided. Either cells were dispensed into 384-well plates for EC50 assays. To perform the assay for genotype 3 and 4, NS5A chimeric genotype 1b Conl replicons that encodes a Pi-RLuc reporter and either genotype 3a S52 strain NS5A gene or genotype 4a ED43 strain NS5A gene respectively, were transiently transfected (t) into Huh-Lunet cells, which were subsequently dispensed into 384-well plates. Compounds were dissolved in DMSO at a concentration of 10 mM and diluted in DMSO either manually or using an automated pipeting instrument. Serially 3-fold diluted compounds were either manually mixed with cell culture media and added to the seeded cells or directly added to the cells using an automated instrument. DMSO was used as a negative (solvent; no inhibition) control, and the protease inhibitor ITMN-191 was included at a concentration >100×EC50 as a positive control. 72 hours later, cells were lysed and Renilla luciferase activity quantified as recommended by the manufacturer (Promega-Madison, Wis.). Non-linear regression was performed to calculate EC50 values.
(§3) To determine the antiviral potency (EC50) against resistance mutants, resistance mutations, including M28T, Q30R, Q30H, Q30E, L31M, Y93C, Y93H, and Y93N in genotype 1a NS5A, Y93H and L31V/Y93H in genotype 1b NS5A, and Y93H for in genotype 3a NS5A, were introduced individually into either 1a Pi-Rluc or 1b Pi-Rluc replicons by site directed mutagenesis. Replicon RNA of each resistant mutant was transiently transfected into Huh-7-derived cured-51 cells and antiviral potency was determined on these transfected cells as described above.

[5] = system: stable HCV 1a RLuc replicon cells (genotype 1a H77 replicon); assay: HCV genotype 1a RLuc replicon reporter assay; assay type: cell-based; conditions: Hepatitis C virus; stable genotype 1a H77 RLuc replicon cells, 72 hours
[6] = system: Y93N in genotype 1a NS5A replicon; assay: Resistance mutant replicon assay, genotype 1a NS5A Y93N; assay type: cell-based, HCV; conditions: Hepatitis C virus, read-out: 1a Y93N (nM)
In short: as §1

[7] = system: NS5A chimeric genotype 2a JFH-1 replicon with genotype 2a J6 strain NS5A gene (M31); assay: HCV genotype 2a J6 NS5A chimeric replicon assay, transient (t); assay type: cell-based; conditions: Hepatitis C virus, 72 h, read-out: 2a J6 (t) (nM)
[8] = system: NS5A chimeric genotype 1b Con1 replicon with genotype 3a S52 strain NS5A gene; assay: HCV genotype 3a NS5A chimeric replicon assay; assay type: cell-based; conditions: Hepatitis C virus, 72 h, read-out: 3a (nM)
In short: (§4)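 Chimeric replicons for 3a and 4a use a Pi-RLuc reporter and were transiently transfected into Huh-Lunet cells; the 2b chimera (RLuc-Neo) was likewise transient in Huh-Lunet; 1b cells are stable. Cells were exposed to 3-fold serial compound dilutions for 72 h, then lysed. EC50s came from non-linear regression of Renilla luciferase signal.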

[9] = system: NS5A chimeric genotype 2a JFH-1 replicon with genotype 2b MD2b-1 strain NS5A gene (M31); assay: HCV genotype 2b NS5A chimeric replicon assay, transient (t); assay type: cell-based; conditions: Hepatitis C virus, 72 h, read-out: 2b (t) (nM)
Description: as §2

[10] = system: NS5A chimeric genotype 1b Con1 replicon with genotype 4a ED43 strain NS5A gene; assay: HCV genotype 4a NS5A chimeric replicon assay; assay type: cell-based; conditions: Hepatitis C virus, 72 h, read-out: 4a (s) (nM)
[11] = system: stable HCV 1b RLuc replicon cells (genotype 1b Con1 replicon); assay: HCV genotype 1b RLuc replicon reporter assay; assay type: cell-based; conditions: Hepatitis C virus; stable genotype 1b Con1 RLuc replicon cells, 72 hours
In short: as §4

[12] = system: Q30E in genotype 1a NS5A replicon; assay: Resistance mutant replicon assay, genotype 1a NS5A Q30E; assay type: cell-based, HCV; conditions: Hepatitis C virus, read-out: 1a Q30E (nM)
Description: as §2, §3

[13] = IV and PO single dose pharmacokinetic studies in SD rats; assay type: in vivo; conditions: Sprague-Dawley, rat, plasma, male SD rats, IV infusion 1 mg/kg, oral gavage 2 mg/kg, read-out: Rat % F
Description: IV and PO Single Dose Pharmacokinetic Studies in SD Rats: The pharmacokinetics of selected compounds was characterized in male Sprague-Dawley (SD) rats (250-300 g). In this study, two groups of naïve purebred SD rats (N=3 per group, fasted over night) received the selected compound either as an intravenous (IV) infusion (1 mg/kg over 30 minutes) via the jugular vein or by oral gavage (2 mg/kg). The intravenous (IV) dosing vehicle was 5% ethanol, 35% polyethylene glycol 400 (PEG 400) and 60% water pH 2.0. The oral dosing vehicle was 5% ethanol, 55% PEG 400 and 40% citrate buffer pH 2.2.
Serial blood samples (approximately 0.3 mL each) were collected from jugular vein or other suitable vein at specified time points. For the IV infusion group, the blood samples were collected predose and at 0.25, 0.48, 0.58, 0.75, 1.5, 3, 6, 8, 12 and 24 hours after the start of infusion. For the oral group, the blood samples were collected predose and at 0.25, 0.50, 1, 2, 4, 6, 8, 12 and 24 hours after dosing. The blood samples were collected into Vacutainer™ tubes containing EDTA-K3 as the anti-coagulant and were centrifuged at approximately 4° C. to obtain plasma. The plasma samples were stored at −20° C. until analysis by LC/MS/MS.
A bioanalytical method utilizing high performance liquid chromatography coupled to tandem mass spectrometry (LC/MS/MS) was developed for analysis of the selected compound in rat plasma. Detection was performed using selected reaction monitoring (SRM); Ions representing the precursor (M+H)^+ species was selected in quadrupole 1 (Q1) and collided with argon gas in the collision cell (Q2) to generate specific product ion, which was subsequently monitored by quadrupole 3 (Q3). Standard curve and quality control samples were prepared in male rat plasma and processed in the same way as the test samples to generate quantitative data.
Pharmacokinetic parameters were generated using non-compartmental pharmacokinetic analysis (Phoenix WinNonlin, version 6.3). Values below the lower limit of quantification (LLOQ) were assigned a value of zero if predose and treated as missing thereafter. Area under the curve (AUC) was calculated using the linear trapezoidal rule. The oral bioavailability (% F) was determined by comparison of the area under the curve (AUC) of the compound and/or a metabolite generated in plasma following oral administration to that generated following intravenous administration.

[14] = system: NS5A chimeric genotype 2a JFH-1 replicon with genotype 2b MD2b-1 strain NS5A gene (M31); assay: HCV genotype 2b NS5A chimeric replicon assay, stable (s); assay type: cell-based; conditions: Hepatitis C virus, 72 h, read-out: 2b (s) (nM)

`CC[C@H]1C[C@@H](c2nc3ccc4cc5c(cc4c3[nH]2)OCc2cc(-c3cnc([C@@H]4CC[C@H](C)N4C(=O)[C@@H](NC(=O)OC)C(C)C)[nH]3)ccc2-5)N(C(=O)[C@@H](NC(=O)OC)C2C[C@@H](C)O[C@H](C)C2)C1` (stereo partly drawn) [Example AF, Methyl [(1S)-1-[(2R,6R)-2,6-dimethyltetrahydro-2H-pyran-4-yl]-2-{(2S,4S)-4-ethyl-2-[9-(2-{(2S,5S)-1-[N-(methoxycarbonyl)-L-valyl]-5-methylpyrrolidin-2-yl}-1H-imidazol-5-yl)-1,11-dihydroisochromeno[4′,3′:6,7]naphtho[1,2-d]imidazol-2-yl]pyrrolidin-1-yl}-2-oxoethyl]carbamate] showed an EC50 [1] of 0.268 nM, an EC50 [2] of 0.012 nM and an EC50 [3] of 4.59 nM. The EC50 [4] was 0.18 nM, the EC50 [5] was 0.022 nM and the EC50 [6] was 0.899 nM. It also gave an EC50 [7] of 0.003 nM, an EC50 [8] of 0.016 nM and an EC50 [9] of 0.014 nM. For the same compound, the EC50 [10] was 0.005 nM, the EC50 [11] was 0.037 nM and the EC50 [12] was 0.097 nM.

Compound `COC(=O)N[C@H](C(=O)N1[C@@H](C)CC[C@H]1c1ncc(-c2ccc3c(c2)COc2cc4c(ccc5nc([C@@H]6CC[C@H](C)N6C(=O)[C@@H](NC(=O)OC)C6CCOCC6)[nH]c54)cc2-3)[nH]1)C(C)C` [Comp 5, reference compound] has a bioavailability [13] of 22%, an EC50 [1] of 0.466 nM and an EC50 [14] of 0.054 nM. It also gave an EC50 [2] of 0.013 nM, an EC50 [3] of 0.549 nM and an EC50 [5] of 0.022 nM. The EC50 [7] was 0.012 nM, the EC50 [8] was 0.041 nM and the EC50 [11] was 0.029 nM. The EC50 [12] was 0.297 nM.

For `CC[C@H]1CC[C@@H](c2nc3ccc4cc5c(cc4c3[nH]2)OCc2cc(-c3cnc([C@@H]4CC[C@H](C)N4C(=O)[C@@H](NC(=O)OC)C(C)C)[nH]3)ccc2-5)N1C(=O)[C@@H](NC(=O)OC)[C@H]1CCCOC1` [Example AG, Methyl{(1S)-2-[(2S,5S)-2-ethyl-5-(9-{2-[(2S,5S)-1-{(2S)-2[(methoxycarbonyl)amino]-3-methylbutanoyl}-5-methylpyrrolidin-2-yl]-1H-imidazol-5-yl}-1,11-dihydroisochromeno[4′,3′:6,7]naphtho[1,2-d]imidazol-2-yl)pyrrolidin-1-yl]-2-oxo-1-[(3R)-tetrahydro-2H-pyran-3-yl]ethyl}carbamate], the bioavailability [13] was 27.8%, the EC50 [14] was 0.092 nM and the EC50 [2] was 0.025 nM. For the same compound, the EC50 [5] was 0.023 nM, the EC50 [7] was 0.121 nM and the EC50 [8] was 0.137 nM. It also gave an EC50 [10] of 0.014 nM and an EC50 [11] of 0.026 nM.

With `COC(=O)N[C@H](C(=O)N1[C@@H](C)CC[C@H]1c1nc2ccc3cc4c(cc3c2[nH]1)OCc1cc(-c2cnc([C@@H]3CC[C@H](C)N3C(=O)[C@@H](NC(=O)OC)C3CCOCC3)[nH]2)ccc1-4)C(C)C` [Comp 7, reference compound] the bioavailability [13] was 10.2%, the EC50 [14] was 0.088 nM and the EC50 [2] was 0.015 nM. For the same compound, the EC50 [5] was 0.018 nM, the EC50 [7] was 0.035 nM and the EC50 [8] was 0.035 nM. The EC50 [9] was 0.037 nM, the EC50 [10] was 0.019 nM and the EC50 [11] was 0.028 nM.

Compound `CC[C@H](C)[C@H](NC(=O)OC)C(=O)N1[C@@H](C)CC[C@H]1c1nc2ccc3cc4c(cc3c2[nH]1)OCc1cc(-c2cnc([C@@H]3CC[C@H](C)N3C(=O)[C@@H](NC(=O)OC)C3C[C@@H](C)O[C@H](C)C3)[nH]2)ccc1-4` (stereo partly drawn) [Example BL, methyl{(2S,3S)-1-[(2S,5S)-2-(9-{2-[(2S,5S)-1-{(2S)-2-[(2R,6R)-2,6-dimethyltetrahydro-2H-pyran-4-yl]-2-[(methoxycarbonyl)amino]acetyl}-5-methylpyrrolidin-2-yl]-1H-imidazol-5-yl}-1,11-dihydroisochromeno[4′,3′:6,7]naphtho[1,2-d]imidazol-2-yl)-5-methylpyrrolidin-1-yl]-3-methyl-1-oxopentan-2-yl}carbamate] has an EC50 [1] of 0.228 nM, an EC50 [2] of 0.009 nM and an EC50 [3] of 1.05 nM. The EC50 [5] was 0.018 nM, the EC50 [6] was 0.531 nM and the EC50 [7] was 0.022 nM. For the same compound, the EC50 [8] was 0.014 nM, the EC50 [9] was 0.021 nM and the EC50 [10] was 0.006 nM. It also gave an EC50 [11] of 0.024 nM.
